{
  "source": "paper PMC11776921",
  "about": "(Journal of chemical theory and computation, 2024)",
  "biological_target": "GSK-3β (Homo sapiens, UniProt P49841)",
  "sequence (P49841 whole entry)": "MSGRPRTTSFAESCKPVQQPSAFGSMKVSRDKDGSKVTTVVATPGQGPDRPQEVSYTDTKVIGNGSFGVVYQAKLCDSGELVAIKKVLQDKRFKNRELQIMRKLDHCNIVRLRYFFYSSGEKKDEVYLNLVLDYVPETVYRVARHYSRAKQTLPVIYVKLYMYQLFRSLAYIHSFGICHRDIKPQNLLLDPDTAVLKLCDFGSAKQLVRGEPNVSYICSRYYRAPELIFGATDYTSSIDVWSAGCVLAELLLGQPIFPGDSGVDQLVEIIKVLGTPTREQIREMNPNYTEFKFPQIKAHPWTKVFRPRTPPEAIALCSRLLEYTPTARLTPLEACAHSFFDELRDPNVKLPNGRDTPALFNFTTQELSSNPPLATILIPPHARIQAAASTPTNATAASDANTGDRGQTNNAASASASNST",
  "test": "GSK-3 kinase Z'LYTE assay",
  "assay_type": "biochemical",
  "conditions": "COB-136 versus COB-187; nitrogen in the pyridine ring replaced by carbon",
  "data": [
    {"smiles": "OC1(c2ccccc2)CSC(=S)N1Cc1ccccc1", "note": "(stereo not shown) [COB-136]", "values": [
      {"measurement": "inhibitory activity (in words)", "result": "dramatically impairs the inhibitory activity"}
    ]}
  ]
}
